Measured values from the supplement of paper PMC9663587.

Columns and labels:
[1] = compound: CCN1CCN(Cc2ccc(Nc3ncc(F)c(-c4cc(F)c5nc(C)n(C(C)C)c5c4)n3)nc2)CC1; assay: GR value, 72 h; higher = faster growth (1 = untreated, <0 = killing);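 note: breast cancer and non-malignant breast epithelial lines, nine half-log doses, viable cells counted by Hoechst and LIVE/DEAD dye imaging versus time-zero plates and DMSO controls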
[2] = compound: CCOc1cc2ncc(C#N)c(Nc3ccc(OCc4ccccn4)c(Cl)c3)c2cc1NC(=O)/C=C/CN(C)C [Neratinib/HKI272]; assay: as above
[3] = compound: CC(=O)c1c(C)c2cnc(Nc3ccc(N4CCNCC4)cn3)nc2n(C2CCCC2)c1=O; assay: as above
[4] = compound: CCc1cnn2c(NCc3ccc[n+]([O-])c3)cc(N3CCCC[C@H]3CCO)nc12; assay: as above
[5] = compound: CN(C)CC[C@H](CSc1ccccc1)Nc1ccc(S(=O)(=O)NC(=O)c2ccc(N3CCN(Cc4ccccc4-c4ccc(Cl)cc4)CC3)cc2)cc1[N+](=O)[O-] [ABT-737]
[6] = compound: CN1CCN(CCOc2cc(OC3CCOCC3)c3c(Nc4c(Cl)ccc5c4OCO5)ncnc3c2)CC1 [Saracatinib/AZD0530]
[7] = compound: Cc1nc(-c2cn3c(n2)-c2ccc(-c4cnn(C(C)(C)C(N)=O)c4)cc2OCC3)n(C(C)C)n1 [Taselisib/GDC0032]
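Throughout, for GR50, 72 h: breast cancer and non-malignant breast epithelial cell lines, Deep Dye Drop or Dye Drop imaging, nine half-log doses, GR normalized to time-zero plates and DMSO-only controls.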

With HCC1428 the GR value ([1]; 0.001 µM) was 0.945 GR, the GR value ([1]; 0.003162 µM) was 0.654 GR and the GR value ([1]; 0.01 µM) was 0.515 GR. It also gave a GR value ([1]; 0.03162 µM) of 0.31 GR, a GR value ([1]; 0.1 µM) of 0.228 GR and a GR value ([1]; 0.3162 µM) of 0.25 GR. The GR value ([1]; 1 µM) was 0.234 GR, the GR value ([1]; 3.162 µM) was 0.181 GR and the GR value ([1]; 10 µM) was 0.0475 GR. For the same cell line, the GR value ([2]; 0.0003162 µM) was 1.08 GR, the GR value ([2]; 0.001 µM) was 1.03 GR and the GR value ([2]; 0.003162 µM) was 1.05 GR. For the same cell line, the GR value ([2]; 0.01 µM) was 0.992 GR, the GR value ([2]; 0.03162 µM) was 1.1 GR and the GR value ([2]; 0.1 µM) was 0.964 GR. The GR value ([2]; 0.3162 µM) was 0.922 GR, the GR value ([2]; 1 µM) was 0.656 GR and the GR value ([2]; 3.162 µM) was -0.0337 GR. The GR value ([3]; 0.0003162 µM) was 1.05 GR, the GR value ([3]; 0.001 µM) was 1.07 GR and the GR value ([3]; 0.003162 µM) was 1.14 GR. For the same cell line, the GR value ([3]; 0.01 µM) was 0.874 GR, the GR value ([3]; 0.03162 µM) was 0.729 GR and the GR value ([3]; 0.1 µM) was 0.434 GR. The GR value ([3]; 0.3162 µM) was 0.313 GR, the GR value ([3]; 1 µM) was 0.247 GR and the GR value ([3]; 3.162 µM) was 0.268 GR. It also gave a GR value ([4]; 0.0001 µM) of 1.11 GR, a GR value ([4]; 0.0003162 µM) of 1.09 GR and a GR value ([4]; 0.001 µM) of 0.975 GR. For the same cell line, the GR value ([4]; 0.003162 µM) was 0.984 GR, the GR value ([4]; 0.01 µM) was 0.871 GR and the GR value ([4]; 0.03162 µM) was -0.205 GR. The GR value ([4]; 0.1 µM) was -0.538 GR, the GR value ([4]; 0.3162 µM) was -0.619 GR and the GR value ([4]; 1 µM) was -0.67 GR. The “GR50, 72 h” value [5] was 4 µM, the “GR50, 72 h” value [6] was greater than 10 µM and the “GR50, 72 h” value [7] was 4.21 µM.
